# Columns and labels:
# [1] = target: Serine/threonine-protein kinase mTOR (Homo sapiens, UniProt P42345); assay: Inhibition of mTOR (unknown origin) by Kinase-Glo plus luminescence kinase assay or and ADP-Glo Plus luminescence kinase assay
# [2] = target: Phosphatidylinositol 4,5-bisphosphate 3-kinase catalytic subunit alpha isoform (Homo sapiens, UniProt P42336); assay: Inhibition of PI3Kalpha (unknown origin) using lipid substrate by Kinase-Glo plus luminescence kinase assay or and ADP-Glo Plus luminescence kinase assay
# Sequence of Phosphatidylinositol 4,5-bisphosphate 3-kinase catalytic subunit alpha isoform (P42336 whole entry, canonical isoform): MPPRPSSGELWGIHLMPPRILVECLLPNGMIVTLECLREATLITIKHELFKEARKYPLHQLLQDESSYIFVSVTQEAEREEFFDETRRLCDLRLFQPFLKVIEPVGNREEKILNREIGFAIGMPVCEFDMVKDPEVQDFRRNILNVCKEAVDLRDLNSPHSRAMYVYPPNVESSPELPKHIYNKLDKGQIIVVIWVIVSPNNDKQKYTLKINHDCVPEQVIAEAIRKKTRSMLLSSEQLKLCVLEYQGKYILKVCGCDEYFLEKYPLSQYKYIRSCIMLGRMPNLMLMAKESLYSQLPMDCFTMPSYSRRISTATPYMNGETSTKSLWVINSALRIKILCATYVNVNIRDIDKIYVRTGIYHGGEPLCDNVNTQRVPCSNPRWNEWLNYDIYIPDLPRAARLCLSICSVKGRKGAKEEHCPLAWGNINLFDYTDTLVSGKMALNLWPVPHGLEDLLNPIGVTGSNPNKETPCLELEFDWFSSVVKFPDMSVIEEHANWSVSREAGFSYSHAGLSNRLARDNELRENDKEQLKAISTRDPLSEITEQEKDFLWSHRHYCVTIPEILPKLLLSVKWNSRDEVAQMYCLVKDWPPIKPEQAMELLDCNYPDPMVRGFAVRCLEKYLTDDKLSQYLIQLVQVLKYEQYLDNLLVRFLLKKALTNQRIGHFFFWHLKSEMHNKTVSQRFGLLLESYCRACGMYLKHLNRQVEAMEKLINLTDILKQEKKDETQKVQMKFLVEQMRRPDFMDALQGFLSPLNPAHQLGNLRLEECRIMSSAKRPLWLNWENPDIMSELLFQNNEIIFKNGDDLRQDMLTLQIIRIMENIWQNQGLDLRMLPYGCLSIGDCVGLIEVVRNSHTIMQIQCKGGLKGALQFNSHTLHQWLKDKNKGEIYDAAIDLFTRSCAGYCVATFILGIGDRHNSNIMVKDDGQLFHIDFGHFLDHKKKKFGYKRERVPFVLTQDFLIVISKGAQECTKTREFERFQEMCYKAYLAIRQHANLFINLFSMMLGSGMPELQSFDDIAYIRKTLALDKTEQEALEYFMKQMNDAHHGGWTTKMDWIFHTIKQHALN
# [3] = test system: A2780; assay: cells; details: Homo sapiens, A2780, 72 h
# Description: Antiproliferative activity against human A2780 cells incubated for 72 hrs by MTT assay
# [4] = test system: MCF7; assay: cells; details: Homo sapiens, MCF7, 72 h
# Description: Antiproliferative activity against human MCF7 cells incubated for 72 hrs by MTT assay
IC50 [1] [nM],IC50 [2] [nM],IC50 [3] [nM],IC50 [4] [nM],Structure (SMILES)
290,> 10000,3110,64,CCCn1cnc2c(N3CCOC[C@@H]3C)cc(-c3ccc(NC(=O)NCC)cc3)nc21
330 to 332,> 10000,2710,18,CCNC(=O)Nc1ccc(-c2cc(N3CCOC[C@@H]3C)c3nc(C)n(CC)c3n2)cc1
39,4200,330,5.8,CCNC(=O)Nc1ccc(-c2nc3c(c(N4CCOC[C@@H]4C)n2)CCN(C2COC2)C3)cc1 [RG-7603]
